The values below are quoted from earlier work in patent publication US20120288450A1, “Chewing gum formula for enhancing psycho-spirituality” (priority 2009, published 2012).

Entries after “also recorded” stand apart in the source; their conditions may differ.

The conditions of series [1]: moisture, light, and radiation.
For series [2] the following is noted: in vivo.
For series [3] the following is noted: in vivo. The source holds these as a separate data set.
Series [4] deals with dopamine in the nucleus accumbens. Conditions: in vivo.
Series [5] deals with anandamide (CB1) receptor (Homo sapiens, UniProt P21554).
Sequence of anandamide (CB1) receptor (P21554 whole entry, species assumed): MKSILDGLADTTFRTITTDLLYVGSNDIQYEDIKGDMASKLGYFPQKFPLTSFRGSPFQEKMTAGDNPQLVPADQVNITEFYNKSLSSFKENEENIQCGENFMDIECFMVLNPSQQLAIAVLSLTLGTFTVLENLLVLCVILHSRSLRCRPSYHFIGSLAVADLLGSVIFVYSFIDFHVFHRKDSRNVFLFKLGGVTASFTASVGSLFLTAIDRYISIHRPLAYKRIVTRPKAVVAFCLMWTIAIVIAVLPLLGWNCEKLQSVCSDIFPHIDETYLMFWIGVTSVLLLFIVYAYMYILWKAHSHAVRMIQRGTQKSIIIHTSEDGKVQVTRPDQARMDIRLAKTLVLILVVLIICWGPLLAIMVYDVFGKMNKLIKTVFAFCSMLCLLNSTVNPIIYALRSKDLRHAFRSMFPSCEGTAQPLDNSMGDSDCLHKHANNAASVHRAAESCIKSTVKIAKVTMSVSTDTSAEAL
For series [6] the following is noted: mice.
For series [7], the system named is various different bioreceptor sites. Conditions: sites commonly effected by most other psychoactive compounds.
In series [8] the target is T1, Monoamine Oxidase Type-A (MAO-A) (Homo sapiens, UniProt P21397).
T1 sequence (P21397 1-527): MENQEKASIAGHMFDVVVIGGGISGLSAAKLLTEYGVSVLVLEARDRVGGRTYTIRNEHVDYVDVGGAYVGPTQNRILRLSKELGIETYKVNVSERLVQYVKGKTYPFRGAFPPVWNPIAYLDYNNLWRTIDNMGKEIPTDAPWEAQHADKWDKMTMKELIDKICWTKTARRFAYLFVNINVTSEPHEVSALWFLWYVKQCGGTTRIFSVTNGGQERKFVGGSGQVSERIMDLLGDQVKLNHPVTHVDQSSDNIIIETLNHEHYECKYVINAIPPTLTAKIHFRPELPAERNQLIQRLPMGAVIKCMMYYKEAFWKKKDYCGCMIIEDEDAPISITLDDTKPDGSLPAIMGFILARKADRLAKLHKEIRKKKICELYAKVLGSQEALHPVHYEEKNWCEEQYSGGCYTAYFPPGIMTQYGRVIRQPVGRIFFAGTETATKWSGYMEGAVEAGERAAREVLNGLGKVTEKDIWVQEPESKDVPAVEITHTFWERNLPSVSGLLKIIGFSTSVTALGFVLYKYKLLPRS

For series [9] the following is noted: in vivo. The source holds these as a separate data set.
Series [10] deals with T2, Monoamine Oxidase Type-B (MAO-B) (Homo sapiens, UniProt P27338).
T2 sequence (P27338 1-520): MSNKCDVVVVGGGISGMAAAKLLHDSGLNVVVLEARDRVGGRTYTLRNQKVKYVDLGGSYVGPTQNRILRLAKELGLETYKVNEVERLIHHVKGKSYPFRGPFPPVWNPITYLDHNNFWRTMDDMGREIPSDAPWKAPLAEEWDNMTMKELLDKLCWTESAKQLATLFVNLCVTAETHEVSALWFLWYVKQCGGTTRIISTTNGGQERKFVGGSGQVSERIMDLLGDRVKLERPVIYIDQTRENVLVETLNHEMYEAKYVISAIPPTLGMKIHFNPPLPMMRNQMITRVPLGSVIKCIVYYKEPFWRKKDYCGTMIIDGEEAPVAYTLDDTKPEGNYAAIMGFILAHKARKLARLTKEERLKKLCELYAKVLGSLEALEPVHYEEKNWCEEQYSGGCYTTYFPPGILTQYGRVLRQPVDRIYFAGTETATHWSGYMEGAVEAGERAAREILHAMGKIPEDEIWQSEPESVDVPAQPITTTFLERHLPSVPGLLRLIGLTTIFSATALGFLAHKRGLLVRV

For series [11] the following is noted: in vivo. This is another data set of the same source.
For series [12] the following is noted: ingested orally.

In the case of `COC(=O)[C@@H]1C[C@H](OC(C)=O)C(=O)[C@H]2[C@@]1(C)CC[C@H]1C(=O)O[C@H](c3ccoc3)C[C@]21C` [Salvinorin A], the solubility in acetone entry is on record as “highly soluble”. Further, the stability of potency entry in series [1] is recorded as “diminish the potency”. Besides, the toxicity entry in [2] was “almost entirely non-toxic; also recorded: ultra low toxicity”. Moreover, in series [3], the “effect on cocaine-produced drug seeking” value is on record as “successful in decreasing the effect of cocaine-produced drug seeking”. The “solubility in water and saliva” value (when still embedded in the leaf) is “substantially water- and saliva-insoluble”. Further, the “release of dopamine in the nucleus accumbens” value in series [4] was “does not induce the release of dopamine”. The “active binding to the anandamide (CB1) receptor site” value in series [5] is on record as “nor has it shown any active binding”. The “anxiolytic and anti-depressant findings” value in series [6] is “anxiolytic and anti-depressant”. For the same compound, the “competitive inhibition of reference target compounds at bioreceptor sites” value in [7] was “has not been shown to incur any significant, competitive inhibition”. Moreover, the “inhibition of MAO-A enzyme” value in [8] is recorded as “does not inhibit”. Moreover, in series [9], the minimal dose is given as 0.2 mg. In addition, in series [10], the “inhibition of MAO-B enzyme” value is listed as “does not inhibit”. Further, the “habit forming / addictiveness” value in series [11] was “non-habit forming and thus non-addictive”. Further, the “active binding to the MK-801 receptor site” value in the series on MK-801 receptor sites is “nor has it shown any active binding”. Moreover, the “entry into the blood stream” value in [12] was “doesn't efficiently enter the blood stream”.

`COC(=O)[C@@H]1C[C@H](O)C(=O)[C@H]2[C@@]1(C)CC[C@H]1C(=O)O[C@H](c3ccoc3)C[C@]21C` [Salvinorin “B”]: in series [9], the “psychoactive effect / activity” value was “not known to induce psychoactive effect”.
